Legend:
[1] = biological target: T1, DPD (Homo sapiens, UniProt Q12882); details: in vivo; cited from earlier work
T1 construct: More than 80% of an administered dose of 5-FU is eliminated by catabolism through DPD
T1 sequence (Q12882 4-1025): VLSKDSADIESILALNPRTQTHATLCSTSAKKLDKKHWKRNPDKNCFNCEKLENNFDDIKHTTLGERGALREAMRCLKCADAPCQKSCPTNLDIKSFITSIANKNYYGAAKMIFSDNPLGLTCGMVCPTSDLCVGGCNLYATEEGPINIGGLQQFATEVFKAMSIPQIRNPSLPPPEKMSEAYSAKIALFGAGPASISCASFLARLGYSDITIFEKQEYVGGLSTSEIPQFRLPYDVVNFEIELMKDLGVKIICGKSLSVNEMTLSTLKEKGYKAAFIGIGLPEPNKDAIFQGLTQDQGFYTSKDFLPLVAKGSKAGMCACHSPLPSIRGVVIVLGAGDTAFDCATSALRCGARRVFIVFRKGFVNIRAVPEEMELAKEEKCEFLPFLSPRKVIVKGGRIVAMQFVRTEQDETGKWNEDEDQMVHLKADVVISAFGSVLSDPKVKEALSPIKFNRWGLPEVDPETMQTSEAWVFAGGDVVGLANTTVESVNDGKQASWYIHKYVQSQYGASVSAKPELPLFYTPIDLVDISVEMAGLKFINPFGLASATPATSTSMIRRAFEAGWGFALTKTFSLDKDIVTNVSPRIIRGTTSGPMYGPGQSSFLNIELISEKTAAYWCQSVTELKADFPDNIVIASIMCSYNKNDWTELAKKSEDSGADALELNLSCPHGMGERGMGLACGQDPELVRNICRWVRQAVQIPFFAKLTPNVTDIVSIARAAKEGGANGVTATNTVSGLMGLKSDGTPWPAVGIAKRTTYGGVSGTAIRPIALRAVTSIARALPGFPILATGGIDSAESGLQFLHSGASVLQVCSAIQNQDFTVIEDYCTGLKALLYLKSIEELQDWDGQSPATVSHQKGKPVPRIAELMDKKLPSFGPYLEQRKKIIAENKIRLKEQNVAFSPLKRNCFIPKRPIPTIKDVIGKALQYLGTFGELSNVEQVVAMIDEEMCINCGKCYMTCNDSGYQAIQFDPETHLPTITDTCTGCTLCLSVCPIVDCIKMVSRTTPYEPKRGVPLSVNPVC

[2] = phase II study, advanced or metastatic pancreatic cancer; cited from earlier work

Compound: O=c1[nH]cc(F)c(=O)[nH]1 [5-FU, 5-Fluorouracil]
- administered dose eliminated by catabolism through DPD [1]: More than 80%

Compound: Nc1ccn([C@@H]2O[C@H](CO)[C@@H](O)C2(F)F)c(=O)n1 [gemcitabine]
- disease progression (Case Report #3): rapidly progressing metastasis
- QOL (Case Report #3, T4NxM1): declining QOL

Compound: CCCCCOC(=O)Nc1nc(=O)n([C@@H]2O[C@H](C)[C@@H](O)[C@H]2O)cc1F [capecitabine]
- side effects (human, in vivo): development of Xeloda-related side effects
- Median survival [2]: 182 days
